This note sets out measurements from patent US11760741B2, “Pro-drugs of eliglustat” (KASHIV BIOSCIENCES, LLC, priority 2018, dated 2023).

Structures can show the parent of a compound that is named as a salt.

As a reminder, the half-life is the time needed for the level to fall by half in the phase considered.

Assay in the first data set: not given
To be noted: human, microsomes.
In the case of `CCCCCCCC(=O)N[C@H](CN1CCCC1)[C@H](OC(=O)c1ccccc1)c1ccc2c(c1)OCCO2` [I-a Hemitartrate salt, (1R,2R)-1-(2,3-dihydrobenzo[b][1,4]dioxin-6-yl)-2-octanamido-3-(pyrrolidin-1-yl)propyl benzoate], the “HLM stability (half-life, minutes)” value is less than 30 min. Still for that read-out and setting: the result for `CCCCCCCC(=O)N[C@H](CN1CCCC1)[C@H](OC(=O)CC)c1ccc2c(c1)OCCO2` [I-f Hemitartrate salt, (1R,2R)-1-(2,3-dihydrobenzo[b][1,4]dioxin-6-yl)-2-octanamido-3-(pyrrolidin-1-yl)propyl propionate] reads less than 30 min. As to `CCCCCCCC(=O)N[C@H](CN1CCCC1)[C@H](OC(C)=O)c1ccc2c(c1)OCCO2` [I-e Hemitartrate salt, (1R,2R)-1-(2,3-dihydrobenzo[b][1,4]dioxin-6-yl)-2-octanamido-3-(pyrrolidin-1-yl)propyl acetate], the “HLM stability (half-life, minutes)” value is less than 30 min.

The nature of the next data set: in vitro. To be noted: human, microsomes, pH 7.4.
`CCCCCCCC(=O)N[C@H](CN1CCCC1)[C@H](OC(=O)Cc1ccccc1)c1ccc2c(c1)OCCO2` [I-b Hemitartrate salt, (1R,2R)-1-(2,3-dihydrobenzo[b][1,4]dioxin-6-yl)-2-octanamido-3-(pyrrolidin-1-yl)propyl 2-phenylacetate] displayed a half-life of less than 30 min. On the same count and under the same terms, the result for `CCCCCCCC(=O)N[C@H](CN1CCCC1)[C@H](OC(=O)c1ccccc1N)c1ccc2c(c1)OCCO2` [I-v, (1R,2R)-1-(2,3-dihydrobenzo[b][1,4]dioxin-6-yl)-2-octanamido-3-(pyrrolidin-1-yl)propyl 2-aminobenzoate] reads less than 30 min.

The next data set in a line: Metabolic stability of prodrugs in human liver microsomes. To be noted: pH 7.4.
On to `CCCCCCCC(=O)N[C@H](CN1CCCC1)[C@H](OC(=O)N(CC)CC)c1ccc2c(c1)OCCO2` [I-n Hemitartrate salt, (1R,2R)-1-(2,3-dihydrobenzo[b][1,4]dioxin-6-yl)-2-octanamido-3-(pyrrolidin-1-yl)propyl diethylcarbamate], for which the half-life was less than 30 min. On the same count and under the same terms, the result for `CCCCCCCCCCCC(=O)O[C@H](c1ccc2c(c1)OCCO2)[C@@H](CN1CCCC1)NC(=O)CCCCCCC` [I-k Hemitartrate salt, (1R,2R)-1-(2,3-dihydrobenzo[b][1,4]dioxin-6-yl)-2-octanamido-3-(pyrrolidin-1-yl)propyl dodecanoate] reads 70 min; that for `CCCCCCCC(=O)N[C@H](CN1CCCC1)[C@H](OC(=O)CCCC(=O)O)c1ccc2c(c1)OCCO2` [I-t, 5-((1R,2R)-1-(2,3-dihydrobenzo[b][1,4]dioxin-6-yl)-2-octanamido-3-(pyrrolidin-1-yl)propoxy)-5-oxopentanoic acid], 65 min. Still for that read-out and setting: the figure for `CCCCCCCC(=O)N[C@H](CN1CCCC1)[C@H](OC(=O)/C=C/C(=O)O)c1ccc2c(c1)OCCO2` [I-s, (E)-4-((1R,2R)-1-(2,3-dihydrobenzo[b][1,4]dioxin-6-yl)-2-octanamido-3-(pyrrolidin-1-yl)propoxy)-4-oxobut-2-enoic acid] is 64 min. Take `CCCCCCCC(=O)N[C@H](CN1CCCC1)[C@H](OS(N)(=O)=O)c1ccc2c(c1)OCCO2` [IV-c, (1R,2R)-1-(2,3-dihydrobenzo[b][1,4]dioxin-6-yl)-2-octanamido-3-(pyrrolidin-1-yl)propyl sulfamate]: the half-life is less than 30 min. The same measure, in the same setting: the result for `CCCCCCCC(=O)N[C@H](CN1CCCC1)[C@H](OC(=O)CC(=O)O)c1ccc2c(c1)OCCO2` [I-z, 3-((1R,2R)-1-(2,3-dihydrobenzo[b][1,4]dioxin-6-yl)-2-octanamido-3-(pyrrolidin-1-yl)propoxy)-3-oxopropanoic acid] reads greater than 90 min. `CCCCCCCC(=O)N[C@H](CN1CCCC1)[C@H](O)c1ccc2c(c1)OCCO2` [Eliglustat, N-((1R, 2R)-1-(2,3-dihydrobenzo[b] [1,4]dioxin-6-yl)-1-hydroxy-3-(pyrrolidin-1-yl)propan-2-yl) octanamide]: the half-life stood at 30 min. The same measure, in the same setting: the figure for `CCCCCCCC(=O)N[C@H](CN1CCCC1)[C@H](OC(=O)N(C)C)c1ccc2c(c1)OCCO2` [I-r, (1R,2R)-1-(2,3-dihydrobenzo[b][1,4]dioxin-6-yl)-2-octanamido-3-(pyrrolidin-1-yl)propyl dimethylcarbamate] is less than 30 min. Regarding `CCCCCCCC(=O)N[C@H](CN1CCCC1)[C@H](OC(=O)[C@H](N)C(C)C)c1ccc2c(c1)OCCO2` [I-l Hydrochloride salt], the half-life is less than 30 min.

`CCCCCCCC(=O)N[C@H](CN1CCCC1)[C@H](OC(=O)CCCCCCC)c1ccc2c(c1)OCCO2` [I-i Hemitartrate salt, (1R,2R)-1-(2,3-dihydrobenzo[b][1,4]dioxin-6-yl)-2-octanamido-3-(pyrrolidin-1-yl)propyl octanoate]: the half-life is less than 30 min. Same read-out and setting: the figure for `CCCCCCCC(=O)N[C@H](CN1CCCC1)[C@H](OC(=O)CCC(=O)O)c1ccc2c(c1)OCCO2` [I-o, 4-((1R,2R)-1-(2,3-dihydrobenzo[b][1,4]dioxin-6-yl)-2-octanamido-3-(pyrrolidin-1-yl)propoxy)-4-oxobutanoic acid] is greater than 90 min. Same read-out and setting: the figure for `CCCCCCCC(=O)N[C@H](CN1CCCC1)[C@H](OC(=O)OCC)c1ccc2c(c1)OCCO2` [I-p Hemitartrate salt, (1R,2R)-1-(2,3-dihydrobenzo[b][1,4]dioxin-6-yl)-2-octanamido-3-(pyrrolidin-1-yl)propyl ethyl carbonate] is less than 30 min; for `CCCCCCCC(=O)N[C@H](CN1CCCC1)[C@H](OC(=O)CCCCC)c1ccc2c(c1)OCCO2` [I-aa, (1R,2R)-1-(2,3-dihydrobenzo[b][1,4]dioxin-6-yl)-2-octanamido-3-(pyrrolidin-1-yl)propyl hexanoate] it is less than 30 min; for `CCCCCCCC(=O)N[C@H](CN1CCCC1)[C@H](OC(=O)[C@@H](N)C(C)C)c1ccc2c(c1)OCCO2` [I-m Hemitartrate salt] it is less than 30 min. Same read-out and setting: the figure for `CCCCCCCC(=O)N[C@H](CN1CCCC1)[C@H](OC(=O)c1cccnc1)c1ccc2c(c1)OCCO2` [I-c Hemitartrate salt, (1R,2R)-1-(2,3-dihydrobenzo[b][1,4]dioxin-6-yl)-2-octanamido-3-(pyrrolidin-1-yl)propyl nicotinate] is less than 30 min; for `CCCCCCCC(=O)N[C@H](CN1CCCC1)[C@H](OC(=O)C(C)(C)C)c1ccc2c(c1)OCCO2` [I-h Hemitartrate salt, (1R,2R)-1-(2,3-dihydrobenzo[b][1,4]dioxin-6-yl)-2-octanamido-3-(pyrrolidin-1-yl)propyl pivalate] it is less than 30 min; for `CCCCCCCCCC(=O)O[C@H](c1ccc2c(c1)OCCO2)[C@@H](CN1CCCC1)NC(=O)CCCCCCC` [I-j Hemitartrate salt, (1R,2R)-1-(2,3-dihydrobenzo[b][1,4]dioxin-6-yl)-2-octanamido-3-(pyrrolidin-1-yl)propyl decanoate] it is 63 min. Regarding `CCCCCCCC(=O)N[C@H](CN1CCCC1)[C@H](OC(=O)COCCOCCOC)c1ccc2c(c1)OCCO2` [II-a, (1R,2R)-1-(2,3-dihydrobenzo[b][1,4]dioxin-6-yl)-2-octanamido-3-(pyrrolidin-1-yl)propyl 2-(2-(2-methoxyethoxy)ethoxy)acetate], the half-life is less than 30 min.

Turning to `CCCCCCCC(=O)N[C@H](CN1CCCC1)[C@H](OS(=O)(=O)O)c1ccc2c(c1)OCCO2` [IV-d, (1R,2R)-1-(2,3-dihydrobenzo[b][1,4]dioxin-6-yl)-2-octanamido-3-(pyrrolidin-1-yl)propyl hydrogen sulfate], the half-life was greater than 90 min.

Take `CCCCCCCC(=O)N[C@H](CN1CCCC1)[C@H](OC(=O)NC)c1ccc2c(c1)OCCO2` [I-u Hemitartrate salt, (1R,2R)-1-(2,3-dihydrobenzo[b][1,4]dioxin-6-yl)-2-octanamido-3-(pyrrolidin-1-yl)propyl methylcarbamate]: the half-life was less than 30 min.

Take `CCCCCCCC(=O)N[C@H](CN1CCCC1)[C@H](OC(=O)c1ccccc1O)c1ccc2c(c1)OCCO2` [I-d Hemitartrate salt, (1R,2R)-1-(2,3-dihydrobenzo[b][1,4]dioxin-6-yl)-2-octanamido-3-(pyrrolidin-1-yl)propyl 2-hydroxybenzoate]: the half-life was less than 30 min.

`CCCCCCCC(=O)N[C@H](CN1CCCC1)[C@H](OC(=O)N1CCC(N2CCCCC2)CC1)c1ccc2c(c1)OCCO2` [I-q, (1R,2R)-1-(2,3-dihydrobenzo[b][1,4]dioxin-6-yl)-2-octanamido-3-(pyrrolidin-1-yl)propyl [1,4′-bipiperidine]-1′-carboxylate]: the half-life was less than 30 min. Still for that read-out and setting: the result for `CCCCCCCC(=O)N[C@H](CN1CCCC1)[C@H](OC(=O)CN(C)C)c1ccc2c(c1)OCCO2` [I-w, (1R,2R)-1-(2,3-dihydrobenzo[b][1,4]dioxin-6-yl)-2-octanamido-3-(pyrrolidin-1-yl)propyl dimethylglycinate] reads less than 30 min; that for `CCCCCCCC(=O)N[C@H](CN1CCCC1)[C@H](OC(=O)CCOCCOCCN)c1ccc2c(c1)OCCO2` [II-b, (1R,2R)-1-(2,3-dihydrobenzo[b][1,4]dioxin-6-yl)-2-octanamido-3-(pyrrolidin-1-yl)propyl 3-(2-(2-aminoethoxy)ethoxy)propanoate], greater than 90 min. On the same count and under the same terms, the figure for `CCCCCCCC(=O)N[C@H](CN1CCCC1)[C@H](OC(=O)C(C)C)c1ccc2c(c1)OCCO2` [I-g Hemitartrate salt, (1R,2R)-1-(2,3-dihydrobenzo[b][1,4]dioxin-6-yl)-2-octanamido-3-(pyrrolidin-1-yl)propyl isobutyrate] is less than 30 min.

In the case of `CCCCCCCC(=O)N[C@H](CN1CCCC1)[C@H](OC(=O)CCN1CCOCC1)c1ccc2c(c1)OCCO2` [I-x, (1R,2R)-1-(2,3-dihydrobenzo[b][1,4]dioxin-6-yl)-2-octanamido-3-(pyrrolidin-1-yl)propyl 3-morpholinopropanoate], the half-life was less than 30 min.
